Data reported in US20210188813A1, “EZH2 INHIBITOR AND PHARMACEUTICALLY ACCEPTABLE SALTS AND POLYMORPHIC SUBSTANCES THEREOF, AND APPLICATION OF EZH2 INHIBITOR” (SHANGHAI HAIYAN PHARMACEUTICAL TECHNOLOGY CO., LTD., priority 2018, published 2021).

Experiments:
[1] = Polymorph screening by mixing shaking; format: physicochemical; conditions: mixed crystal forms I to III shaken 1 day at room temperature in different solvents
Procedure: Mixing shaking test was conducted using different solvent systems. 2 mg of each crystal form of crystal form I to crystal form III was weighed into a glass vial to obtain the mixed crystals, the appropriate amount of organic reagents in Table 6 were added, screwed the cap, and a sealing film was used to prevent the solvent from volatilizing, shaken for 1 days at room temperature and 25 r/min, taken out and centrifuged at 10000 r/min for 10 min at 4° C., the supernatant was poured, and the solid was placed in a oven at 50° C. for drying, the resulting solid was collected and sent for XRPD test.

[2] = molecular target: T1, PRC2 (EZH2-Y641F) (Homo sapiens, UniProt Q15910, Y641F); assay: In vitro methyltransferase assay; format: biochemical
T1 construct: purchased Active motif
Procedure: Recombinant PRC2 (EZH2-Y641F) was purchased from Active motif, S-adenosyl-methionin chloride (SAM) and Poly-L-lysine (PLL) were purchased from Sigma-Aldrich, H3(1-50)K27me1 peptide was purchased from Cisbio. LANCEUltra (Perkinelmer) system was used for detection. For the enzyme activity test, tested compounds are 1:3 diluted for 8-points, and added into each well, then 100 ng enzyme is added. And then the buffer [20 mM Tris pH8.5, 2 mM MgCl2, 0.01% Tween-20, 1 mM TCEP] containing […]/250 nM H3 (1-50)K27me1 premixtures are added. After 3 hours enzyme reaction at RT, the premixed detection buffer (PLL, Europium antibody and Ulight) is added, and react for 1 h at RT, then read fluorescence on Tecan infinite pro. IC50s are counted by XLfit using a four-parameter model.

[3] = tested on: Pfeiffer cells; assay: Cell proliferation assay, Pfeiffer; format: cell-based; conditions: Homo sapiens, Pfeiffer, 144 h; 6 days' growth, cell counting kit-8
Procedure: Cell lines Pfeiffer (CRL-2632), suDHL-6 (CRL-2959) and suDHL-10 (CRL-2963) were obtained from ATCC. All cell lines were cultured in RPMI-1640 medium (Gibco) plus 10% FBS (Gibco). Cells are harvested by centrifuge and densities are determined using a CounterStar cell counter. Appropriate number of cells are plated in a96-well culture plate and pre-incubate overnight. Tested compounds are 1:3 diluted for 8-points and added into each well. After 6 days' growth, cell counting kit-8 (Dojindo) is used to detect cell viability and read on Tecan infinite pro. IC50s are counted by XLfit using a four-parameter model.

T1 sequence (Q15910 whole entry Y641F): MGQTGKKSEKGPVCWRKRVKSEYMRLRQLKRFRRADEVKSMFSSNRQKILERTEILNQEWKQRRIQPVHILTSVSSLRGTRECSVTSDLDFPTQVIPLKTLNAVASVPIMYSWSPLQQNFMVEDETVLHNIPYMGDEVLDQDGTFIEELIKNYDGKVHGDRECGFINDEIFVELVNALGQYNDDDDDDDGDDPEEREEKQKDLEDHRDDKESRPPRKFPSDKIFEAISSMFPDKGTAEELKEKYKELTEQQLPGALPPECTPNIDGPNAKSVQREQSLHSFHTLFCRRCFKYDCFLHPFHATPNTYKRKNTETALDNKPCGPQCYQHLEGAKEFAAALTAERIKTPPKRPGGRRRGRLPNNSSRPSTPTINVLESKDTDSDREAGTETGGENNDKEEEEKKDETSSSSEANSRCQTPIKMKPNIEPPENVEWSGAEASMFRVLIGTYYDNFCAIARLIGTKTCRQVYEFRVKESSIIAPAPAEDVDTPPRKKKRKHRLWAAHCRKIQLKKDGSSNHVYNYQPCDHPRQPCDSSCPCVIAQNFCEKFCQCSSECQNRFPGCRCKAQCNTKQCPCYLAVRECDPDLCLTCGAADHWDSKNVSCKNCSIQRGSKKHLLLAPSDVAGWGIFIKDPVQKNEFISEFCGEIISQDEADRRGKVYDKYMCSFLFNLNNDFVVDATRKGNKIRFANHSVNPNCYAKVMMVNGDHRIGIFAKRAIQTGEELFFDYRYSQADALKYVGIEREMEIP
T1 sequence (O75530 whole entry partner): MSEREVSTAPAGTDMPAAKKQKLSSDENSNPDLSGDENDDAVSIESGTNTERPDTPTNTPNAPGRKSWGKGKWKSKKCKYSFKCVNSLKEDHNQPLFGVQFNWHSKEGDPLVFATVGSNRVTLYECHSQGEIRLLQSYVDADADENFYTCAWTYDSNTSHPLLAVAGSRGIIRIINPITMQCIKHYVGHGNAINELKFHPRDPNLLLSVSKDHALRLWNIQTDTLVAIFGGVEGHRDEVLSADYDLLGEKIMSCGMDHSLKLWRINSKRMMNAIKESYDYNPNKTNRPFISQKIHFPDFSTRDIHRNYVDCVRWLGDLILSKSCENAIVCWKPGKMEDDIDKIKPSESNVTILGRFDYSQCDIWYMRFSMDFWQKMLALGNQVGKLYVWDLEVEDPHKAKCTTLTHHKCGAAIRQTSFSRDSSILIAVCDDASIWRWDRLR
T1 sequence (Q15022 whole entry partner): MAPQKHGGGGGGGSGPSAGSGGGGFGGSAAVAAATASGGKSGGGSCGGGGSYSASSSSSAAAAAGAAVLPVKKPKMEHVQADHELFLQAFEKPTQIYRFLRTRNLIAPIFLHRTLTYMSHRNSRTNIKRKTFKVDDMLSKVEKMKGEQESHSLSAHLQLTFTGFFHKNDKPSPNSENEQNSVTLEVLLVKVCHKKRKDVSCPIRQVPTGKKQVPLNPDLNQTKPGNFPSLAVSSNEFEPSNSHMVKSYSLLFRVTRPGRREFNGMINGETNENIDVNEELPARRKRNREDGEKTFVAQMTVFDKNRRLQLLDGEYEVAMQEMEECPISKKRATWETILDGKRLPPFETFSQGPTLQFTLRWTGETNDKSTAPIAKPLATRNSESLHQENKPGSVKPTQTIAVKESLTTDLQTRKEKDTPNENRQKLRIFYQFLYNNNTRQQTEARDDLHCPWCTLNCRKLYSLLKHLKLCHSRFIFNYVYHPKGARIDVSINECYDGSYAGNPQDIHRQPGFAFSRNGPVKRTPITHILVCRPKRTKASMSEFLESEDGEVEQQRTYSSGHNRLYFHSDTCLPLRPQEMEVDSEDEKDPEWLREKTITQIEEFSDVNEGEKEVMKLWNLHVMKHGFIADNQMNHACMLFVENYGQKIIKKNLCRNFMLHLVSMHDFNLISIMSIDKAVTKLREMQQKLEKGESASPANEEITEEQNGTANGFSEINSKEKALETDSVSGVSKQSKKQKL
T1 sequence (Q09028 whole entry partner): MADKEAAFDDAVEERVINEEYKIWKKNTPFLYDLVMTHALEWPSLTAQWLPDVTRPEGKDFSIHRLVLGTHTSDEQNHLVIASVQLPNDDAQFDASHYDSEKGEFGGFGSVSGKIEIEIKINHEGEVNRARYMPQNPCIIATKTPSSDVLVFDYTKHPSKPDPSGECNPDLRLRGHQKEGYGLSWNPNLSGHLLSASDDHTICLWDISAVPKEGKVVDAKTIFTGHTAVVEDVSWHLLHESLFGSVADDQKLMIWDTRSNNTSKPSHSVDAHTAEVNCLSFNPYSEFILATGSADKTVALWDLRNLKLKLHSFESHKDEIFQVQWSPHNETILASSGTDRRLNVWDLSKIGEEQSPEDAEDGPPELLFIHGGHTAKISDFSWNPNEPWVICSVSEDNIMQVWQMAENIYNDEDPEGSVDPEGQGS
T1 sequence (Q6ZN18 whole entry partner): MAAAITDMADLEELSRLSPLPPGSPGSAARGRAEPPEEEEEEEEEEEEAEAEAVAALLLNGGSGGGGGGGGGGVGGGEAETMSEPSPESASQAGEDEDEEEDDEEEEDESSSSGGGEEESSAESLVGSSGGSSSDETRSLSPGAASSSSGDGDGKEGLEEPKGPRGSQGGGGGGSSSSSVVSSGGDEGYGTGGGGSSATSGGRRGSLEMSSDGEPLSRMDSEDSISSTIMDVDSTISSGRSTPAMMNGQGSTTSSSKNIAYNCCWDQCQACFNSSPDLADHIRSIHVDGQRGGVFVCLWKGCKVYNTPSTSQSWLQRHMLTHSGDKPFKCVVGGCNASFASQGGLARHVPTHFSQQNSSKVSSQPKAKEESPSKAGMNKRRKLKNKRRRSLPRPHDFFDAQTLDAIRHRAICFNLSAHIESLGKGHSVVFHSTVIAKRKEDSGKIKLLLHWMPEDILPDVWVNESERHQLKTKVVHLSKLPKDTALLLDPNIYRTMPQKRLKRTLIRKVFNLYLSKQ

SMILES	stability of crystal form [1]	IC50 [2]	IC50 [3]
CCc1c(C(=O)NCc2c(C)cc(C)[nH]c2=O)cc2c(cnn2C)c1N(CC)[C@H]1CC[C@H](N2CC(OC)C2)CC1 [Crystal form V]	stable crystal form		
CCN(c1cc(C(=O)NCc2c(C)cc(C)[nH]c2=O)c(C)c2c1cnn2C)C1CCOCC1 [D1, N-((4,6-dimethyl-2-oxo-1,2-dihydropyridin-3-yl)methyl)-4-(ethyl (tetrahydro-2H-pyran-4-yl)amino)-1,7-dimethyl-1H-indazole-6-carboxamide]		> 10 µM	> 10 µM
